Assay results reported in patent publication US20240307383A1 (AstraZeneca AB, priority 2023, published 2024).
Where two headings read alike, the source gives them in different places.

Columns and labels:
[1] = test system: patients with type 2 diabetes and CKD; conditions: post hoc analysis of the CREDENCE trial; cited from earlier work
[2] = test system: healthy volunteers and patients with type 2 diabetes; conditions: cited from earlier work
[3] = test system: patients having chronic kidney disease; assay: Systolic blood pressure change from baseline, all participants (Example 3, FIG. 6, Table 10B); type: in vivo, human
[4] = test system: patients having chronic kidney disease; assay: UACR change from baseline over 12 weeks (Example 3, FIG. 5); type: in vivo, human; conditions: dapagliflozin 10 mg alone; plateau over 12-week period; UACR>700 mg/g
[5] = test system: patients having chronic kidney disease; assay: Diastolic blood pressure change from baseline, participants having UACR >700 mg/g (FIG. 7B, Table 11B); type: in vivo, human; conditions: for Diastolic blood pressure, mean change from baseline: Dapa 10 mg + placebo, UACR >700 mg/g
[6] = test system: patients having chronic kidney disease; assay: Systolic blood pressure change from baseline, participants having UACR >700 mg/g (FIG. 7A, Table 11A); type: in vivo, human; conditions: for Systolic blood pressure, mean change from baseline: Dapa 10 mg + placebo, UACR >700 mg/g
[7] = test system: pregnant rabbits; conditions: period of major embryonic organogenesis; cited from earlier work
[8] = observations so far; cited from earlier work
[9] = dapagliflozin 10 mg + placebo, end of 12-week period, UACR>700 mg/g

In the case of Cc1ccc([C@@H]2O[C@H](CO)[C@@H](O)[C@H](O)[C@H]2O)cc1Cc1ccc(-c2ccc(F)cc2)s1 [canagliflozin], the “Effect on UACR levels” value [1] is given as “failed to reduce UACR levels below 300 mg/g in a substantial number of patients”.
In the case of CCOc1ccc(Cc2cc([C@@H]3O[C@H](CO)[C@@H](O)[C@H](O)[C@H]3O)ccc2Cl)cc1 [dapagliflozin, (1S)-1,5-anhydro-1-{4-chloro-3-[(4-ethoxyphenyl)methyl]phenyl}-D-glucitol], the Well tolerated dose ([2]; repeat dose testing for 14 days in healthy volunteers and patients with type 2 diabetes) is listed as “up to 100 mg/day”, the Well tolerated dose ([2]; single dose testing in healthy volunteers) is listed as “up to 500 mg/day” and the “Systolic blood pressure, mean change” value ([3]; Dapa 10 mg + placebo, all participants) is listed as −3.4. The “Decrease in systolic blood pressure from baseline” value ([3]; dapagliflozin 10 mg + placebo, 12-week period, all participants) was 3.4%, the “Systolic blood pressure after final planned dose” value ([3]; dapagliflozin 10 mg + placebo, week 14) was “returned to baseline levels” and the “Mean percent decrease of UACR from baseline” value [4] was “approximately 20%”. For the same compound, the “Diastolic blood pressure, mean change from baseline” value ([5]; Week 1) was −2.9, the “Diastolic blood pressure, mean change from baseline” value ([5]; Week 3) was −2.4 and the “Diastolic blood pressure, mean change from baseline” value ([5]; Week 6) was −2.7. For the same compound, the “Diastolic blood pressure, mean change from baseline” value ([5]; Week 9) was −2.0, the “Diastolic blood pressure, mean change from baseline” value ([5]; Week 12) was −2.2 and the “Mean reduction in diastolic blood pressure relative to baseline” value [5, 9] was “approximately 2%”. The “Systolic blood pressure, mean change from baseline” value ([6]; Week 1) was −5.7, the “Systolic blood pressure, mean change from baseline” value ([6]; Week 3) was −6.1 and the “Systolic blood pressure, mean change from baseline” value ([6]; Week 6) was −6.5. For the same compound, the “Systolic blood pressure, mean change from baseline” value ([6]; Week 9) was −2.9, the “Systolic blood pressure, mean change from baseline” value ([6]; Week 12) was −4.6 and the “Mean reduction in systolic blood pressure from baseline” value [6, 9] was “over 4%”.
For COc1nc(C)cnc1NS(=O)(=O)c1cccnc1-c1ccc(-c2nnco2)cc1 [zibotentan, N-(3-methoxy-5-methylpyrazin-2-yl)-2-[4-(1,3,4-oxadiazol-2-yl)phenyl]pyridine-3-sulfonamide], the “Dose levels causing teratogenic effects” value [7] is given as at least 1 mg/kg/day and the Hepatotoxicity [8] is given as “has not been observed”.
